Results on 1 molecule are retold here after patent US4078079A, “Thiocyano-xanthate miticides” (Stauffer Chemical Company, priority 1976, dated 1978).

Converted amounts (≈) assume the structure as drawn.

In assay [1] the test system is Staphylococcus aureus. The assay can be described thus: Staphylococcus Aureus Use Dilution Test. It is filed as cell-based. As to conditions: Tryptic Soy Broth, 24 hours, 37° C, read-out: Minimum Inhibitory Concentration. The method, then: This test measures the bacteriostatic effectiveness of a particular test compound against Staphylococcus aureus. Tryptic Soy Broth is dispensed aseptically into sterile 13 × 100 mm. clear glass culture tubes. The first tube receives 3.6 ml. of medium and tubes 2 through 10 receive 2.0 ml. of medium. The test compound is dissolved in acetone to give 10 ml. of a solution of 0.10% of the test compound. Using a sterile syringe, 0.4 ml. of the test compound solution is placed in the first tube containing the 3.6 ml. of sterile broth and mixed thoroughly. This operation is continued through to the tenth tube. From the tenth tube, 2.0 ml. of solution is removed and discarded. Each tube is then innoculated with 0.1 ml. of a 24 hour culture of Staphylococcus aureus in Tryptic Soy Broth, and the mixture is mixed thoroughly using a Vortex mixer. A control is also set up to be sure that the inoculum is viable using a tube of sterile broth containing no added toxicant. The tubes are incubated for 24 hours at 37° C. The tubes are then examined to determine growth of the organism in the culture tubes. The minimum concentration in which no growth of the organism occurs is recorded. The following table gives the minimum inhibitory concentration necessary to control the organism: […]

Assay [2] concerns Phoma herbarum. The assay is described as follows: Biocide Testing Procedure (malt extract broth). It is filed as cell-based. The conditions noted are these: 168 h, one week, read-out: lowest concentration which provides 50% inhibition of growth. The method, then:
Biocide Testing Procedure Tubes of sterilized nutrient and malt extract broth are prepared. Aliquots of the toxicant, dissolved in an appropriate solvent, are injected through the stopper, into the broth, to provide concentrations ranging from 50 ppm downward. The test organism is a fungus, Phoma herbarum. Three drops of a spore suspension of the fungus are injected into the tubes of malt broth. One week later the growth of the organism is observed and effectiveness of the chemical is recorded as the lowest concentration in ppm which provides 50% inhibition of growth as compared to untreated inoculated tube.

Assay [3] concerns Desulfovibrio desulfuricans. The assay can be described thus: Sulfate Reducing Bacteria In Vitro Test. It is filed as cell-based. The conditions noted are these: Sulfate API broth with tryptone, anaerobic, room temperature, 3 to 5 days, read-out: minimum inhibitory concentration necessary to control the organism. The method, then: This test measures the bactericidal properties of a compound when in contact with a sulfate reducing bacteria, specifically Desulfovibrio desulfuricans. The test is conducted by dissolving the test compound in acetone to give an 0.5% solution. This toxicant is added to vials containing sterile Sulfate API broth with tryptone under anaerobic conditions at such levels to give final toxicant concentrations of 1, 5, 10 and 50 ug/ml. of solution. An inoculant solution of 0.5 ml. of the growing organism, Desulfovibrio desulfuricans, is added to the vials followed by sufficient sterile distilled water to give a total of 10 ml. of solution in the vials. The vials are incubated at room temperature for 3 to 5 days until untreated controls show growth of the organism as indicated by the black color development in the vials. The following is a summary of the minimum inhibitory concentration necessary to control the organism.

In assay [4] the test system is Escherichia coli. The assay is described as follows: In Vitro Agar Screening Tests (Example 4). In kind it is cell-based. As to conditions: nutrient agar, 37° C, read-out: Minimum Inhibitory Concentration. As to the method: (§1) This test measures the bactericidal, fungicidal and algaecidal properties of a compound when in contact with growing bacteria, fungi or algae in an artificial medium. The test is conducted by adding 20 ml. portions of a suitable warm sterile agar solution into 20 × 100 Petri dishes. Then, the text compound, in 0.5% acetone solution, is added to the Petri dishes at levels of 1, 5, 10 and 50 μg/ml. and mixed with the warm mobile agar solution. The treated agar mixture is then allowed to come to room temperature and solidify. Cells of the chosen organism are streaked on the surface of the solidified agar and are then incubated for such lengths of time that untreated samples containing no toxicant show luxurious growth typical of the particular organism. This time varies from 24 hours to one week depending on the particular organism. The fungi are incubated at 30° C and the bacteria are incubated at 37° C. The algae are incubated at room temperature under artificial light. Nutrient agar is used as the medium in this test for the bacteria. Potato dextrose agar is used as the medium for the fungi with the exception of Trichophyton mentagrophytes for which Emmons agar is used. A modified Jack Meyers agar is used for the growth of the algae.
(§2) The extent of growth is noted at the end of the incubation period.

For assay [5], the system named is Chlorella pyrenoidosa. The assay can be described thus: In Vitro Agar Screening Tests (Example 4). The conditions noted are these: Auxenochlorella pyrenoidosa, modified Jack Meyers agar, room temperature, artificial light, read-out: Minimum Inhibitory Concentration. It is filed as cell-based. As to the method: as §1, §2
The subject of assay [6] is Staphylococcus aureus. The assay is described as follows: In Vitro Agar Screening Tests (Example 4). The conditions noted are these: nutrient agar, 37° C, read-out: Minimum Inhibitory Concentration. It is filed as cell-based. The method, then:
as §1, §2

For assay [7], the system named is Pencillium vermiculatum. The assay is described as follows: In Vitro Agar Screening Tests (Example 4). In kind it is cell-based. As to conditions: potato dextrose agar, 30° C, read-out: Minimum Inhibitory Concentration. As to the method: as §1, §2
For assay [8], the system named is Scenedesmus obliquus. The assay can be described thus: In Vitro Agar Screening Tests (Example 4). As to conditions: Tetradesmus obliquus, modified Jack Meyers agar, room temperature, artificial light, read-out: Minimum Inhibitory Concentration. In kind it is cell-based. The method, then:
as §1, §2

Assay [9] relates to Bacillus cereus. The assay is described as follows: In Vitro Agar Screening Tests (Example 4). In kind it is cell-based. The conditions noted are these: nutrient agar, 37° C, read-out: Minimum Inhibitory Concentration. The method, then:
as §1, §2

Assay [10] concerns Euglena gracilis. The assay can be described thus: In Vitro Agar Screening Tests (Example 4). It is filed as cell-based. The conditions noted are these: modified Jack Meyers agar, room temperature, artificial light, read-out: Minimum Inhibitory Concentration. The method, then: as §1, §2
Assay [11] relates to Enterobacter aerogenes. The assay can be described thus: In Vitro Agar Screening Tests (Example 4). It is filed as cell-based. The conditions noted are these: Klebsiella aerogenes, nutrient agar, 37° C, read-out: Minimum Inhibitory Concentration. As to the method: as §1, §2
The subject of assay [12] is Trichophyton mentagrophytes. The assay is described as follows: In Vitro Agar Screening Tests (Example 4). It is filed as cell-based. As to conditions: Emmons agar, 30° C, partial control at this concentration, read-out: Minimum Inhibitory Concentration. As to the method:
as §1, §2

In assay [13] the test system is Pencillium expansum. The assay can be described thus: In Vitro Agar Screening Tests (Example 4). In kind it is cell-based. As to conditions: potato dextrose agar, 30° C, partial control at this concentration, read-out: Minimum Inhibitory Concentration. The method, then:
as §1, §2

In assay [14] the test system is Rhizopus stolonifer. The assay is described as follows: In Vitro Agar Screening Tests (Example 4). In kind it is cell-based. The conditions noted are these: potato dextrose agar, 30° C, partial control at this concentration, read-out: Minimum Inhibitory Concentration. The method, then: as §1, §2
In assay [15] the test system is Brevibacterium ammoniagenes. The assay is described as follows: In Vitro Agar Screening Tests (Example 4). It is filed as cell-based. The conditions noted are these: Corynebacterium ammoniagenes, nutrient agar, 37° C, read-out: Minimum Inhibitory Concentration. As to the method: as §1, §2
Assay [16] relates to Trichoderma sp. The assay is described as follows: In Vitro Agar Screening Tests (Example 4). It is filed as cell-based. The conditions noted are these: potato dextrose agar, 30° C, partial control at this concentration, read-out: Minimum Inhibitory Concentration. As to the method: as §1, §2
Assay [17] relates to Pencillium ochra-chloron. The assay is described as follows: In Vitro Agar Screening Tests (Example 4). It is filed as cell-based. As to conditions: potato dextrose agar, 30° C, partial control at this concentration, read-out: Minimum Inhibitory Concentration. As to the method: as §1, §2
Assay [18] concerns Pseudomonas fluorescens. The assay is described as follows: In Vitro Agar Screening Tests (Example 4). It is filed as cell-based. The conditions noted are these: nutrient agar, 37° C, read-out: Minimum Inhibitory Concentration. As to the method:
as §1, §2

Assay [19] concerns Aspergillus niger. The assay is described as follows: In Vitro Agar Screening Tests (Example 4). It is filed as cell-based. As to conditions: potato dextrose agar, 30° C, read-out: Minimum Inhibitory Concentration. As to the method:
as §1, §2

The subject of assay [20] is Pseudomonas aeruginosa. The assay can be described thus: In Vitro Agar Screening Tests (Example 4). As to conditions: nutrient agar, 37° C, read-out: Minimum Inhibitory Concentration. In kind it is cell-based. As to the method: as §1, §2
In assay [21] the test system is Aspergillus oryzae. The assay can be described thus: In Vitro Agar Screening Tests (Example 4). The conditions noted are these: potato dextrose agar, 30° C, partial control at this concentration, read-out: Minimum Inhibitory Concentration. It is filed as cell-based. The method, then:
as §1, §2

The subject of assay [22] is Penicillium italicum. The assay is described as follows: In Vitro Agar Screening Tests (Example 4). In kind it is cell-based. The conditions noted are these: potato dextrose agar, 30° C, read-out: Minimum Inhibitory Concentration. As to the method:
as §1, §2

For assay [23], the system named is Aspergillus fumigatus. The assay can be described thus: In Vitro Agar Screening Tests (Example 4). It is filed as cell-based. As to conditions: potato dextrose agar, 30° C, read-out: Minimum Inhibitory Concentration. The method, then: as §1, §2
Assay [24] deals with Two-spotted Mite (2-SM) Tetranychus urticae (Koch). The assay can be described thus: Plant Dip Assay on Two-Spotted Mite, 2-SM PE. In kind it is in vivo. The conditions noted are these: infested Pinto Bean plants dipped 2-3 seconds, mortality after seven days, adult mites. An excerpt:
The Two-spotted Mite (2-SM) Tetranychus urticae (Koch) is subjected to evaluation tests for miticidal activity. Plant Dip Assay on Two-Spotted Mite [Tetranychus urticae (Koch)] Pinto Bean plants (Phaseolus sp.) approximately 10 cm tall, are transplanted into sandy loam soil in 3 inch clay pots and thoroughly infested with two-spotted mites of mixed ages and sexes. Twenty-four hours later the infested plants are inverted and dipped for 2-3 seconds in 50-50 acetone-water solutions of the test chemicals. Treated plants are held in the greenhouse, and seven days later mortality is determined for both the adult mites and the nymphs hatching from eggs which were on the plants at the time of treatment. Test concentrations range from 0.05% down to that at which 50% mortality occurs. The values obtained in this test are found in Table VII under the Columns 2SM-PE and 2SM-Eggs.

As to `CCOCCOC(=S)SCSC#N` [Compound 1], the MIC in assay [1] turned out to be 50 µg/mL (≈ 211 µM); in [3], 10 µg/mL (≈ 42.1 µM); in [4], 25 µg/mL (≈ 105 µM); in assay [5], 1 µg/mL (≈ 4.21 µM); in assay [6], 5 µg/mL (≈ 21.1 µM); in [7], 10 µg/mL (≈ 42.1 µM). Moreover, the MIC in [8] was 10 µg/mL (≈ 42.1 µM); in assay [9], above 50 µg/mL; in [10], 1 µg/mL (≈ 4.21 µM); in [11], above 50 µg/mL; in assay [12] it was 10 µg/mL (≈ 42.1 µM); in assay [13], 5 µg/mL (≈ 21.1 µM). Further, the MIC was 1 µg/mL (≈ 4.21 µM) in assay [14]; above 50 µg/mL in assay [15]; 10 µg/mL (≈ 42.1 µM) in [16]; 10 µg/mL (≈ 42.1 µM) in assay [17]; 50 µg/mL (≈ 211 µM) in assay [18]; 1 µg/mL (≈ 4.21 µM) in assay [19]. Further, the MIC in [20] was 50 µg/mL (≈ 211 µM); in assay [21] it was 1 µg/mL (≈ 4.21 µM); in assay [22], 1 µg/mL (≈ 4.21 µM); in assay [23], 5 µg/mL (≈ 21.1 µM). Further, in [2], the IC50 turned out to be 5 µg/mL (≈ 21.1 µM). Besides, the “2-SM PE: concentration at which 50% mortality occurs” value in assay [24] is listed as “.03%”.
